The values below come from paper PMC10778198, “First-in-Human Dose-Escalation Study of the Novel Oral Depsipeptide Class I-Targeting HDAC Inhibitor Bocodepsin (OKI-179) in Patients with Advanced Solid Tumors” (Cancers, 2023).

Structures are written as SMILES. Where two headings read alike, the source gives them in different places.

A short description of data set [1]: plasma pharmacokinetics by LC-MS/MS in patients. The class given is in vivo, human. Particulars: human, plasma, oral, 300 mg, plasma; for AUC(0-t): read-out: AUClast of OKI-179; for Cmax: read-out: Cmax of OKI-179; for Tmax: read-out: Tmax of OKI-179. The protocol:
Blood samples were collected immediately prior to the first dose on cycle 1 and day 1, and then at 0.25, 0.5, 1, 2, 4, 8, and 24 h after taking OKI-179 on days 1 and 15. Additional samples were collected pre-dose and 2 and 4 h after OKI-179 administration on day 18 in later cohorts. Blood samples were stabilized with sodium fluoride and formic acid immediately after collection to arrest the additional conversion of the prodrug OKI-179 to OKI-006. Plasma was further stabilized using ascorbic acid prior to low-temperature storage.
Plasma concentrations of OKI-179 and OKI-006 were analyzed using validated liquid chromatography-mass spectrometry (LC-MS/MS) (Quintara Discovery Inc., Hayward, CA, USA). OKI-006 contains a free thiol moiety that can reversibly react with endogenous molecules in the blood and tissue, resulting in “bound” OKI-006. The unreacted OKI-006 is considered “free”. As bound OKI-006 can reversibly convert to free OKI-006 in vivo, both the free and “total” (free plus bound) concentrations of OKI-006 are considered pharmacologically relevant and were therefore quantified as part of this study. Bioanalytically, the total OKI-006 was measured by chemically converting all bound OKI-006 to free OKI-006 prior to analysis using the free OKI-006 bioanalytical method.
The AUClast was calculated from time zero to the time of the last quantifiable concentration for OKI-179, free OKI-006, and total OKI-006.

Data set [2] deals with histone acetylation (Ac-H3K27) in circulating T cells. Nature of the data set: histone acetylation in circulating T cells (PBMC flow cytometry). The class given is in vivo, human. The protocol: Blood samples for acetylated (Ac)-H3K27, Ac-H3K9, and Ac-lysine levels in peripheral blood mononuclear cells (PBMCs) were collected in cycle 1. Samples were collected immediately prior to dosing and at 2, 8, and 24 h post-dosing on days 1 and 15. Blood samples were processed within 3 h of collection, and isolated PBMCs were washed and resuspended in cell cell-freezing medium. Cells were stored at ≤−70 °C prior to shipment to the University of Texas at Austin Dell Medical School (UTDMS) for analysis. Briefly, patient PBMCs were thawed at 37 °C for 5 min, washed with flow wash buffer containing PBS/2% FBS/5 mM EDTA, and stained for 30 min on ice with the following: fixable viability dye (BioLegend 423106; Zombie NIR^TM, San Diego, CA, USA), CD3 (Biolegend; Clone OKT3), CD4 (BioLegend; Clone SK3), and CD8 (Biolegend; Clone RPA-T8). All samples were washed twice before being fixed and permeabilized using a BD Biosciences (Hunt Valley, MD, USA) Cytofix/Cytoperm™ kit (RRID: AB_2869008) according to the manufacturer’s protocol and stained for 30 min for intracellular acetylation markers: Ac-H3K27 (Cell Signaling Technology; Clone D5E4), Ac-H3K9 (Cell Signaling Technology, Danvers, MA, USA; Clone CFB11), and total Ac-lysine (BioLegend; Clone 15G10). All cells were analyzed on a Cytek Aurora (5 L 16UV-16V-14B-10YG-8R). Spectral unmixing was performed based on fluorophore-specific single-color cells and compensation bead (ThermoFisher 01-2222-41, Waltham, MA, USA) controls using SpectroFlo© software (v3). All post-acquisition analyses were performed using FlowJo software (v10.3). Results are shown as fold-changes from pre-dose values for each patient and day.
Descriptive statistics were used for baseline characteristics, safety assessments, pharmacokinetic variables, exploratory assessments, and efficacy analysis, including the duration of response and time to progression. Tables were used to summarize the data across the cohort of patients and various dosing groups. Geometric means were used to calculate plasma concentration-time profiles. […]
On the technique in general: Flow cytometry measures light scatter and fluorescence of single cells or particles in a stream.

Data set [3] has as its system murine (syngeneic) and human cancer cell line xenograft models. Further details: method as in PMID 34965958, PMID 31235619. As to conditions: single agent; colorectal cancer, triple-negative breast cancer, diffuse large B-cell lymphoma models; cited from earlier work.
Data set [4] concerns metastatic NRAS-mutated melanoma. Further details: method as in earlier work. As to conditions: combination with binimetinib, phase 2 data, previously treated with immunotherapy; cited from earlier work.
Where [5] appears, read: 300-mg 5:2, Cycle 1 Day 15, geometric mean.

Consider `CC(C)[C@H](N)C(=O)SCC/C=C/[C@@H]1CC(=O)NCc2nc(cs2)C(=O)NC(C)(C)C(=O)N[C@@H](C(C)C)C(=O)O1` [OKI-179, Bocodepsin], for which the AUC(0-t) in data set [1] (300 mg 5:2 cohort, mean single-dose) came to 253 ng·h/mL; in data set [1] (300-mg 5:2, Cycle 1 Day 1, geometric mean), 253 ng·h/mL; in data set [1] (setting [5]), 374 ng·h/mL. Besides, the Cmax in data set [1] (300-mg 5:2, Cycle 1 Day 1, geometric mean, N=6) was found to be 142 ng/mL; in data set [1] (setting [5]) it was 215 ng/mL. The Tmax worked out at 52.5 min in data set [1] (300-mg 5:2, Cycle 1 Day 1, median) and 56 min in data set [1] (300-mg 5:2, Cycle 1 Day 15, median). Further, the half-life was 105 min in data set [1] (300-mg 5:2, Cycle 1 Day 1, median, read-out: t1/2 of OKI-179 (converted)); 104 min in data set [1] (300-mg 5:2, Cycle 1 Day 15, median, read-out: t1/2 of OKI-179 (converted)); ~102 min in data set [1] (day 15, 300 mg 5:2, read-out: terminal half-life (t1/2) of OKI-179 (converted)). In data set [2] (300 mg doses, 2 h after dosing, days 1 and 15, T cells), the “increase in histone acetylation” value stood at 6 fold. Further, the “increase in H3K27 acetylation in CD4 T cells” value in data set [2] (doses >200 mg) was “greater than 6 fold”. Further, the “increase in H3K27 acetylation in circulating T cells” value in data set [2] (doses of 200 mg or greater) is recorded as > 6 fold. For the same molecule, in data set [3], the antitumor activity result is listed as “significant antitumor activity”. Moreover, the “overall response rate (ORR)” value in data set [4] is on record as 38%.

One may read the Cmax as the peak of the concentration-time curve. By Tmax is commonly meant the time at which the peak concentration occurs.
